In patent publication EP0376166A1, “Condensed quinoline system compound and process of preparation thereof” (MECT CORPORATION, priority 1988, dated 1990):

Legend:
[1] = system: KB Cell; assay: Inhibition of multiplication (growth) of KB cells, in vitro; format: cell-based, human; conditions: Homo sapiens, 72 h, concentration for 50% growth inhibition vs control, compound added Day 1, cells counted Day 4, read-out: Conc.(ED50)
Procedure: KB cells, carcinomatous cell tumors, were transferred to in vitro floatation incubator systems, and added respectively with compounds of Examples 1 to 33. The results of cultivation added with these compounds were compared with the results of the control which was not added with any compound.
Cell used: KB Cell (Originating from human mouth epidermal cancer) Culture medium: Eagles minimal essential medium (MEM) supplemented with 10% calf serum Cultivation: 37°C carbon dioxide gas incubator (5% CO₂)
Day 0: KB cells were diluted in the culture medium to adjust the KB cell density to 2 x 10⁴/ml. Three ml of the cell suspension was inoculated in each of 60 mm plastic dishes. Two dishes per standard dosage were used. Day 1: Test compound was added to the medium so that the final concentrations were set to 100, 30, 10, 3 and 1 µg/ml. Day 4: Cells were scraped off from the dish using trypsin, and the cell number was countered using a Corter counter.
In generally accordance with the stipulations set forth by the National Cancer Institute (NCI), U.S.A., the concentration of compound necessary for exerting 50% growth inhibition (ED₅₀) compared to the control was determined. A compound was judged as effective when ED₅₀ was less than 4 µg/ml.

[2] = system: P-388; assay: Prolongation of life span in P-388 implanted mice; format: in vivo, CDF mouse; conditions: for response vs control in vivo at 12.5 mg/kg / response vs control in vivo at 25 mg/kg / response vs control in vivo at 50 mg/kg / response vs control in vivo at 100 mg/kg / response vs control in vivo at 200 mg/kg: P388, ip, T/C %, Day 1 and Day 5, P-388 10⁶ cells/mouse i.p., read-out: Ratio of Life Prolongation (%); for cure: cured mice per group of 6; for response vs control in vivo at 200 mg/kg: dosage 200 mg/kg
Procedure: Animal used: CDF mouse (6 mice/group) Tumor: P-388 Number of implanted cells: 10⁶ cells/mouse Implanted site: i.p. Day of administration: Day 1 and Day 5 Dosage: LD₅₀ or 400 mg/kg/day at the maximum

| Compound | IC50 [1] [µg/mL] | response vs control in vivo at 12.5 mg/kg ([2]; dosage 12.5 mg/kg) [%] | response vs control in vivo at 25 mg/kg ([2]; dosage 25 mg/kg) [%] | response vs control in vivo at 50 mg/kg ([2]; dosage 50 mg/kg) [%] | cure ([2]; dosage 25 mg/kg) | cure ([2]; dosage 50 mg/kg) | response vs control in vivo at 100 mg/kg ([2]; dosage 100 mg/kg) [%] | response vs control in vivo at 200 mg/kg [2] [%] | cure ([2]; dosage 100 mg/kg) | cure ([2]; dosage 12.5 mg/kg) |
| --- | --- | --- | --- | --- | --- | --- | --- | --- | --- | --- |
| COc1cc(NS(C)(=O)=O)ccc1Nc1c2ccccc2nc2c1[nH]c1ccc(Cl)cc12 [Compound 12] | < 0.3 | 231 | 242 | 315 | 1/6 | 1/6 | – | – | – | – |
| COC(=O)Nc1ccc(Nc2c3ccccc3nc3c2[nH]c2ccccc23)c(OC)c1 [Compound 14] | < 0.3 | – | – | 282 | – | – | 266 | 221 | 1/6 | – |
| COc1cc(NC(C)=O)ccc1Nc1c2ccccc2nc2c1[nH]c1ccccc12 [Compound 15] | < 0.3 | – | – | 263 | – | – | 240 | 76 | 1/6 | – |
| COc1cc(NS(C)(=O)=O)ccc1Nc1c2ccccc2nc2c1[nH]c1cc(C)ccc12 [Compound 17, 6-(4-methanesulfoneamide-2-methoxyanilino)-3-methylindolo[3,2-b]quinoline] | < 0.3 | 153 | 77 | 75 | – | – | – | – | – | – |
| COc1cc(NS(C)(=O)=O)ccc1Nc1c2ccccc2nc2c1[nH]c1ccc(F)cc12 [Compound 19, 2-fluoro-6-(4-methanesulfonamide-2-methoxyanilino)indolo[3,2-b]quinoline] | < 0.3 | 313 | 252 | – | 2/6 | – | – | – | – | 3/6 |
| COc1cc(O)ccc1Nc1c2ccccc2nc2c1[nH]c1ccccc12 [Compound 20] | < 0.3 | 179 | 131 | – | 1/6 | – | – | – | – | – |
| COc1cc(NS(C)(=O)=O)ccc1Nc1c2ccccc2nc2c1[nH]c1ccc(N)cc12 [Compound 22, 2-amino-6-(4-methanesulfonamide-2-methoxyanilino)indolo[3,2-b]quinoline] | < 0.3 | 171 | 200 | – | – | – | – | – | – | – |

Further lines, with some results ahead:

| IC50 [1] [µg/mL] | Compound | response vs control in vivo at 12.5 mg/kg ([2]; dosage 12.5 mg/kg) [%] | response vs control in vivo at 25 mg/kg ([2]; dosage 25 mg/kg) [%] | response vs control in vivo at 50 mg/kg ([2]; dosage 50 mg/kg) [%] | cure ([2]; dosage 25 mg/kg) | cure ([2]; dosage 50 mg/kg) | response vs control in vivo at 100 mg/kg ([2]; dosage 100 mg/kg) [%] | response vs control in vivo at 200 mg/kg [2] [%] | cure ([2]; dosage 100 mg/kg) | cure ([2]; dosage 12.5 mg/kg) |
| --- | --- | --- | --- | --- | --- | --- | --- | --- | --- | --- |
| < 0.3 | COc1cc(NS(C)(=O)=O)ccc1Nc1c2ccccc2nc2c1[nH]c1ccc(C)cc12 [Compound 13, 6-(4-methanesulfonamide-2-methoxyanilino)-2-methylindolo[3,2-b]quinoline] | 189 | 192 | 115 | – | – | – | – | – | – |
| < 0.3 | COc1cc(NS(C)(=O)=O)ccc1Nc1c2ccccc2nc2c1[nH]c1cccc(C)c12 [Compound 16, 6-(4-methanesulfonamide-2-methoxyanilino)-1-methylindolo[3,2-b]quinoline] | 240 | 288 | 269 | 2/6 | – | – | – | – | 2/6 |
| < 0.3 | COc1cc(NS(C)(=O)=O)ccc1Nc1c2ccccc2nc2c1[nH]c1ccc([N+](=O)[O-])cc12 [Compound 18, 6-(4-methanesulfonamide-2-methoxyanilino)-2-nitroindolo[3,2-b]quinoline] | – | – | – | – | – | – | – | – | 1/6 |
| < 0.3 | COc1cc(OC(C)=O)ccc1Nc1c2ccccc2nc2c1[nH]c1ccccc12 [Compound 21] | – | 179 | 185 | – | 1/6 | – | – | – | – |
